Tests used:
[1] = tested on: H1 human embryonic stem cells; assay: Analogue screening in combination with only GDF-8, SOX17 (Example 21, Tables 18 and 19); type: cell-based; set-up: Sox17 Expression: % of positive control / Cell Number: % of positive control: tested at 2.5 µM; conditions: compound in combination with GDF8; for Cell Number: Average Total Cell Number / Sox17 Expression: Average Total Intensity: four assay plates; for Cell Number: % of positive control / Sox17 Expression: % of positive control: relative to Activin A/Wnt3a of the same plate
Method: Briefly, clusters of H1 human embryonic stem cells were grown on reduced growth factor Matrigel™ (Invitrogen; Cat #356231)-coated tissue culture plastic. Cells were passaged using collagenase (Invitrogen; Cat #17104-019) treatment and gentle scraping, washed to remove residual enzyme, and plated with even dispersal at a ratio of 1:1 (surface area) on reduced growth factor […]™ (BD Biosciences; Cat #356231)-coated 96-well black plates (Packard ViewPlates; PerkinElmer; Cat #6005182) using volumes of 100 μl/well. Cells were allowed to attach and then recover log phase growth over a 1 to 3 day time period, feeding daily with MEF conditioned medium supplemented with 8 ng/ml bFGF (R&D Systems; Cat #233-FB). Plates were maintained at 37° C., 5% CO2 in a humidified box throughout the duration of assay.
Screening was conducted using a library of the analogue compounds. Compounds from this library were made available as 5 mM stocks in 96-well plate format, solubilized in 100% DMSO (Sigma; Cat #D2650) and stored at −80° C. The library compounds were further diluted to an intermediate concentration of 0.2 mM in 50 mM HEPES (Invitrogen; Cat #15630-080), 20% DMSO and stored at 4° C. Test conditions were performed in triplicate, feeding on alternating days over a four-day assay period. Assays were initiated by aspirating culture medium from each well followed by three washes in PBS (Invitrogen; Cat #14190) to remove residual growth factors. On the first day of assay, test volumes of 200 μl per well were added to each well using DMEM:F12 base medium (Invitrogen; Cat #11330-032) supplemented with 0.5% FCS (HyClone; Cat #SH30070.03) and 200 ng/ml GDF-8 (R&D Systems, Cat #788-G8) plus 2.5 μM compound. On the third day of assay, test volumes of 100 μl per well were added to each well using DMEM:F12 base medium supplemented with 2% FCS plus 200 ng/ml GDF-8 (R&D Systems, Cat #788-G8). Positive control samples contained the same base medium supplemented with FCS and 1000 ng/ml recombinant human activin A (PeproTech; Cat #120-14) throughout the four-day assay along with Wnt3a (20 ng/ml) on days 1 and 2. Negative control samples contained DMEM:F12 base medium supplemented with FCS, adding Wnt3a on days 1 and 2 but omitting treatment with activin A.
At the conclusion of four-days of culture, assay plates were washed twice with PBS (Invitrogen; Cat #14190), fixed with 4% paraformaldehyde (Alexis Biochemical; Cat #ALX-350-011) at room temperature for 20 minutes, then washed three times with PBS and permeabilized with 0.5% Triton X-100 (Sigma; Cat #T8760-2) for 20 minutes at room temperature. Cells were washed again three times with PBS and blocked with 4% chicken serum (Invitrogen; Cat #16110082) in PBS for 30 minutes at room temperature. Primary antibody (goat anti-human SOX17; R&D Systems; Cat #AF1924) was diluted 1:100 in 4% chicken serum and added to each well for one hour at room temperature. Alexa Fluor 488 conjugated secondary antibody (chicken anti-goat IgG; Molecular Probes; Cat #AZ1467) was diluted 1:200 in PBS and added to each sample well after washing three times with PBS. To counterstain nuclei, 4 μg/ml Hoechst 33342 (Invitrogen; Cat #H3570) was added for ten minutes at room temperature. Plates were washed once with PBS and left in 100 μl/well PBS for imaging.
Imaging was performed using an IN Cell Analyzer 1000 (GE Healthcare) utilizing the 51008bs dichroic for cells stained with Hoechst 33342 and Alexa Fluor 488. Exposure times were optimized from positive control wells and from untreated negative control wells stained with secondary antibody alone. Images from 15 fields per well were acquired to compensate for any cell loss during the bioassay and subsequent staining procedures. Measurements for total cell number and total SOX17 intensity were obtained from each well using IN Cell Developer Toolbox 1.7 (GE Healthcare) software. […]

[2] = tested on: H1 human embryonic stem cells; assay: Analog screening with GDF-8 and growth factor/agonist pool (Example 8, Tables 7 and 8); type: cell-based
Method: Briefly, clusters of H1 human embryonic stem cells were grown on reduced growth factor […]™ (Invitrogen; Cat #356231)-coated tissue culture plastic. Cells were passaged using collagenase (Invitrogen; Cat #17104-019) treatment and gentle scraping, washed to remove residual enzyme, and plated with even dispersal at a ratio of 1:1 (surface area) on reduced growth factor […]™-coated 96-well black plates (Packard ViewPlates; PerkinElmer; Cat #6005182) using volumes of 100 μl/well. Cells were allowed to attach as clusters and then recover log phase growth over a 1 to 3 day period, feeding daily with MEF conditioned medium supplemented with 8 ng/ml bFGF (R&D Systems; Cat #233-FB). Plates were maintained at 37° C., 5% CO2 in a humidified box throughout the duration of assay. Growth factors purchased from R&D Systems were EGF (Cat #236-EG), FGF4 (Cat #235-F4), PDGF-A (Cat #221-AA), PDGF-D (Cat #1159-SB), PDGF-A/B (Cat #222-AB). […] Screening was conducted using a library of compounds that were made available as 5 mM stocks in 96-well plate format, solubilized in 100% DMSO (Sigma; Cat #D2650) and stored at −80° C. The compounds were further diluted to an intermediate concentration of 0.2 mM in 50 mM HEPES (Invitrogen; Cat #15630-080), 20% DMSO and stored at 4° C. Test conditions were performed in single wells, feeding on alternate days over a four-day assay period. Primary screening assays were initiated by aspirating culture medium from each well followed by three washes in PBS (Invitrogen; Cat #14190) to remove residual growth factors and serum. On the first day of assay, test volumes of 200 μl per well were added back containing DMEM:F12 base medium (Invitrogen; Cat #11330-032) supplemented with 0.5% FCS (HyClone; […] Cat #1324-WN) plus 2.5 μM compound. All remaining growth factors were tested at a final assay concentration of 50 ng/ml (EGF, FGF4, PDGF-A, PDGF-A/B, VEGF) with the exception of GDF-8 tested at 25 ng/ml. […] Cat #120-14). […] All remaining growth factors were tested at a final assay concentration of 50 ng/ml (EGF, FGF4, PDGF-A, PDGF-A/B, VEGF) with the exception of GDF-8 tested at 25 ng/ml. […] Cat #120-14). Negative control samples contained DMEM:F12 base medium supplemented with 2% FCS. […] At the conclusion of four-days of culture, assay plates were washed twice with PBS (Invitrogen; Cat #14190), fixed with 4% paraformaldehyde (Alexis Biochemical; Cat #ALX-350-011) at room temperature for 20 minutes, then washed three times with PBS and permeabilized with 0.5% Triton X-100 (Sigma; Cat #T8760-2) for 20 minutes at room temperature. Cells were washed again three times with PBS and blocked with 4% chicken serum (Invitrogen; Cat #16110082) in PBS for 30 minutes at room temperature. Primary antibody (goat anti-human SOX17; R&D Systems; Cat #AF1924) was diluted 1:100 in 4% chicken serum and added to each well for one hour at room temperature. Alexa Fluor 488 conjugated secondary antibody (chicken anti-goat IgG; Molecular Probes; Cat #AZ1467) was diluted 1:200 in PBS and added to each sample well after washing three times with PBS. To counterstain nuclei, 4 μg/ml Hoechst 33342 (Invitrogen; Cat #H3570) was added for ten minutes at room temperature. Plates were washed once with PBS and left in 100 μl/well PBS for imaging. Imaging was performed using an IN Cell Analyzer 1000 (GE Healthcare) utilizing the 51008bs dichroic for cells stained with Hoechst 33342 and Alexa Fluor 488. Exposure times were optimized from positive control wells and from untreated negative control wells stained with secondary antibody alone. Images from 15 fields per well were acquired to compensate for any cell loss during the bioassay and subsequent staining procedures. […] Segmentation for the nuclei was determined based on gray-scale levels (baseline range 100-300) and nuclear size. Averages and standard deviations were calculated for each replicate data set. […]

[3] = Plate 1, compound + EGF, FGF, PDGF-A, VEGF, PDGF-D, muscimol, GDF8
[4] = Plate 1, compound + EGF, FGF, PDGF-A, VEGF, PDGF-D, muscimol, GDF8, positive control Activin A/Wnt3a
[5] = Table 8: hits with greater than 25% activity of the positive control, with GDF-8 and growth factors/agonists

Row | SMILES | Cell Number: Average Total Cell Number [1] | Sox17 Expression: Average Total Intensity [1] | Cell Number: % of positive control [1] [%] | Sox17 Expression: % of positive control [1] [%] | Cell Number, Average Total Cell Number [2, 3] | Sox17 Expression, Average Total Intensity [2, 3] | Cell Number, % of positive control [2, 4] | Sox17 Expression, % of positive control [2, 4] | Cell Number, % of positive control [2, 5] | Sox17 Expression, % of positive control [2, 5] | Sox17 Expression, Average Total Intensity [2, 5]
1 | OCCc1cccc(Nc2ncnc(-c3cccnc3)n2)c1 [Compound 2, 2-{3-[(4-Pyridin-3-yl-1,3,5-triazin-2-yl)amino]phenyl}ethanol] | 4538 | 2.95E+07 | 30.2 | 8.6 | – | – | – | – | – | – | –
2 | CC(C)(C)OC(=O)NCCCCc1cc(-c2ncnc(Nc3cccc(CO)c3)n2)ccn1 [Compound 4, 1,1-Dimethylethyl {4-[4-(4-{[3-(hydroxymethyl)phenyl]amino}-1,3,5-triazin-2-yl)pyridin-2-yl]butyl}carbamate] | 3163 | 1.58E+07 | 20.7 | 4.7 | – | – | – | – | – | – | –
3 | COc1ccc(-c2ccnc(Nc3cc(Br)cc(CO)c3)n2)cc1CN(C)CCCNC(=O)OC(C)(C)C [Compound 5, 1,1-Dimethylethyl {3-[{[5-(2-{[3-bromo-5-(hydroxymethyl)phenyl]amino}pyrimidin-4-yl)-2-(methyloxy)phenyl]methyl}(methyl)amino]propyl}carbamate] | 3137 | 1.30E+07 | 20.5 | 3.9 | – | – | – | – | – | – | –
4 | O=C1CCN2CCN(CC2)Cc2cc(Cl)cc(c2)Nc2ncnc(n2)-c2ccc(F)c(c2)CCCN1 [Compound 24, 5-Chloro-17-fluoro-1,8,10,12,22,26,32-heptaazapentacyclo[24.2.2.1˜3,7˜0.1˜9,13˜0.1˜14,18˜]tritriaconta-3(33), 4,6,9(32), 10,12,14(31), 15,17-nonaen-23-one] | 5012 | 2.64E+07 | 33.4 | 7.7 | 12714 | 2.46E+08 | 94.9 % of positive control | 98.2 % of positive control | 94.9 % of positive control | 98.2 % of positive control | 2.46E+08
5 | CN1CCC(C(=O)NCc2sc(Nc3cccc(C(F)(F)F)c3)nc2-c2cccnc2)CC1 [Compound 50, 1-Methyl-N-[(4-pyridin-3-yl-2-{[3-(trifluoromethyl)phenyl]amino}-1,3-thiazol-5-yl)methyl]piperidine-4-carboxamide] | 2666 | 1.48E+07 | 19.1 | 4.8 | – | – | – | – | – | – | –
6 | CC(C)(C)OC(=O)NCCc1ccc(Nc2nnc(-c3cccc(CCCO)c3)[nH]2)cc1 [Compound 51, 1,1-Dimethylethyl {2-[4-({5-[3-(3-hydroxypropyl)phenyl]-4H-1,2,4-triazol-3-yl}amino)phenyl]ethyl}carbamate] | 4289 | 1.70E+07 | 28.6 | 4.9 | – | – | – | – | – | – | –
7 | COc1ccc(CCCO)cc1-c1cnc(Nc2cccc(CNC(=O)OC(C)(C)C)c2)o1 [Compound 52, 1,1-Dimethylethyl {[3-({5-[5-(3-hydroxypropyl)-2-(methyloxy)phenyl]-1,3-oxazol-2-yl}amino)phenyl]methyl}carbamate] | 4932 | 1.99E+07 | 32.9 | 5.8 | – | – | – | – | – | – | –
8 | CN1CCN(S(=O)(=O)c2ccc(Nc3cncc(-c4ccc(CN5CCC(O)CC5)s4)n3)cc2)CC1 [Compound 53, 1-({5-[6-({4-[(4-Methylpiperazin-1-yl)sulfonyl]phenyl}amino)pyrazin-2-yl]thiophen-2-yl}methyl)piperidin-4-ol] | 2783 | 6.36E+06 | 18.2 | 1.9 | – | – | – | – | – | – | –
